The experiment has as its system Vaccinia virus. Briefly: Concentration required to inhibit vaccinia virus induced cytopathogenic affects by 50%. It is filed as functional, Orthopoxvirus vaccinia.
[1] abbreviates: Orthopoxvirus vaccinia, read-out: MIC50.

In brackets after ≈: the same amount, converted by molar mass.

For `Nc1ncnc2c1ncn2[C@@H]1C[C@H](CO)[C@@H](O)[C@@H]1O`, the MIC50 was 9 µg/mL (≈ 33.9 µM). Also, the MIC50 under setting [1] turned out to be 9 µg/mL (≈ 33.9 µM).
Turning to `OCC1CC(n2nnc3c(O)ncnc32)C(O)C1O` (stereo not given), the MIC50 under setting [1] stood at 467 µg/mL (≈ 1750 µM).
Same read-out and setting: under `OCC1CC(n2cnc3c(O)ncnc32)C(O)C1O` (stereo not given) stands 191 µg/mL (≈ 717 µM); under `Nc1ccn([C@@H]2C[C@H](CO)[C@@H](O)[C@H]2O)c(=O)n1` (stereo in doubt; form 2), 57 µg/mL (≈ 236 µM).

(Values after ChEMBL document CHEMBL1122513, “Synthesis and antiviral activity of carbocyclic analogues of 2'-deoxyribofuranosides of 2-amino-6-substituted-purines and of 2-amino-6-substituted-8-azapurines” (J Med Chem, 1984).)
